According to patent publication US20200206173A1, “A PERSONAL CARE COMPOSITION” (Conopco, Inc., d/b/a UNILEVER, priority 2017, published 2020):

System: IL-6 in THP-1 monocytes
Assay: Anti-inflammation efficacy in THP-1 in vitro assay: IL-6 in supernatant by ELISA after LPS stimulation
Format: cell-based
Conditions: LPS 1 μg/mL, 24 hours, PMA-differentiated THP-1
Method: The following procedure was used to test the anti-inflammation efficacy of the various actives alone or in combination. • (i) 5×10^5 THP-1 monocytes were placed into 24-well plates, with 100 nM PMA in the culture media to differentiate the cell. • (ii) After 72 hours differentiation, treatments as follows were supplemented into fresh media and applied to the cells: • Example 1: Vehicle control with LPS (1 μg/mL) stimulation • Example 2,3: DHA at 100 or 20 μM alone with LPS (1 μg/mL) stimulation. • Example 4,5: Niacinamide at 10000 or 5000 μM alone with LPS (1 μg/mL) stimulation. • Example 6,7: Combinations of 100 μM DHA and either 10000 or 5000 μM of niacinamide. • Example 8: Combination of 20 μM DHA and 10000 μM of niacinamide. • (iii) After 24 hours incubation, the supernatants were collected. • (iv) Then IL-6 concentration was quantified in the supernatant by BD Elisa kit. • (v) IL-6 inhibition rate was calculated in comparison with vehicle control with LPS stimulation as a reference for each treatment.
The lower the percentage, the higher the anti-inflammatory potential. The CI value (combination index) of the various combinations is also less than 1 indicating synergism.
The data below is expressed in % IL-6 inhibition rate in Table-2 below. • (i) 5×10^5 THP-1 monocytes were placed into 24-well plates, with 100 nM PMA in the culture media to differentiate the cell. • (ii) After 72 hours differentiation, treatments as follows were supplemented into fresh media and applied to the cells: • Example 9: Vehicle control with LPS (1 μg/mL) stimulation • Example 10,11,12: DHA at 100, 50 or 25 μM alone with LPS (1 μg/mL) stimulation. • Example 13,14,15: Niacinamide at 5000, 2500 or 1250 μM alone with LPS (1 μg/mL) stimulation. • Example 16: Combinations of 100 μM DHA and 5000 μM of niacinamide. • Example 17: Combination of 50 μM DHA and 2500 μM of niacinamide. • Example 18: Combination of 25 μM DHA and 1250 μM of niacinamide. • (iii) After 24 hours incubation, the supernatants were collected. • (iv) Then IL-6 concentration was tested in the supernatant by BD Elisa Kit. • (v) IL-6 inhibition rate was calculated in comparison with vehicle control with LPS stimulation as reference, for each treatment.
Experiments were carried out at various concentrations of DHA and niacinamide at mole ratios outside the invention i.e., at 1:12.5. The data below is expressed in % IL-6 inhibition rate in Table-3 below: • (i) 5×10^5 THP-1 monocytes were placed into 24-well plates, with 100nM PMA in the culture media to differentiate the cell. • (ii) After 72 hours differentiation, treatments as follows were supplemented into fresh media and applied to the cells: • Example 20: Vehicle control with LPS (1 μg/mL) stimulation • Example 21,22,23: DHA at 100, 50 or 25 μM alone with LPS (1 μg/mL) stimulation. • Example 24,25,26: Niacinamide at […] alone with LPS (1 μg/mL) stimulation. • Example 27: Combinations of 100 μM DHA and 1250 μM of niacinamide. • Example 28: Combination of 50 μM DHA and 625 μM of niacinamide. • Example 29: Combination of 25 μM DHA and […] of niacinamide. • (iii) After 24 hours incubation the supernatants were collected. • (iv) Then IL-6 concentration was tested in the supernatant by BD Elisa Kit. • (v) IL-6 inhibition rate was calculated in comparison with vehicle control with LPS stimulation as reference, for each treatment.

Compound	% of LPS (concentration of IL-6 as a % of that obtained for LPS) (20 μM of DHA alone)	% of LPS (concentration of IL-6 as a % of that obtained for LPS) (25 μM of DHA alone)	% of LPS (concentration of IL-6 as a % of that obtained for LPS) (50 μM of DHA alone)	% of LPS (concentration of IL-6 as a % of that obtained for LPS) (100 μM of DHA alone)	% of LPS (concentration of IL-6 as a % of that obtained for LPS) (100 μM of DHA alone, listed as 10)	% of LPS (concentration of IL-6 as a % of that obtained for LPS) (100 μM of DHA alone, listed as 21)	% of LPS (concentration of IL-6 as a % of that obtained for LPS) (317.5 μM of niacinamide alone)	% of LPS (concentration of IL-6 as a % of that obtained for LPS) (625 μM of niacinamide alone)	% of LPS (concentration of IL-6 as a % of that obtained for LPS) (1250 μM of niacinamide alone, listed as 15)	% of LPS (concentration of IL-6 as a % of that obtained for LPS) (1250 μM of niacinamide alone, listed as 24)	% of LPS (concentration of IL-6 as a % of that obtained for LPS) (2500 μM of niacinamide alone)	% of LPS (concentration of IL-6 as a % of that obtained for LPS) (5000 μM of niacinamide alone, listed as 5)	% of LPS (concentration of IL-6 as a % of that obtained for LPS) (5000 μM of niacinamide alone, listed as 13)	% of LPS (concentration of IL-6 as a % of that obtained for LPS) (10000 μM of niacinamide alone)
CC/C=C\C/C=C\C/C=C\C/C=C\C/C=C\C/C=C\CCC(=O)O [Example 2, docosahexaenoic acid]	58.5%	65.5%	38.7%	14.7%	8.3%	8.3%	–	–	–	–	–	–	–	–
NC(=O)c1cccnc1 [Example 4, niacinamide]	–	–	–	–	–	–	84.2%	77.6%	64.5%	35.4%	50.8%	33.4%	26.5%	5.7%
